Read-outs that look alike come from different tables or passages of the source.
Target: T1, Androgen Receptor (Homo sapiens, UniProt P10275)
T1 construct: endogenous in cells; host or cells: VCaP cells
T1 sequence (P10275 1-920): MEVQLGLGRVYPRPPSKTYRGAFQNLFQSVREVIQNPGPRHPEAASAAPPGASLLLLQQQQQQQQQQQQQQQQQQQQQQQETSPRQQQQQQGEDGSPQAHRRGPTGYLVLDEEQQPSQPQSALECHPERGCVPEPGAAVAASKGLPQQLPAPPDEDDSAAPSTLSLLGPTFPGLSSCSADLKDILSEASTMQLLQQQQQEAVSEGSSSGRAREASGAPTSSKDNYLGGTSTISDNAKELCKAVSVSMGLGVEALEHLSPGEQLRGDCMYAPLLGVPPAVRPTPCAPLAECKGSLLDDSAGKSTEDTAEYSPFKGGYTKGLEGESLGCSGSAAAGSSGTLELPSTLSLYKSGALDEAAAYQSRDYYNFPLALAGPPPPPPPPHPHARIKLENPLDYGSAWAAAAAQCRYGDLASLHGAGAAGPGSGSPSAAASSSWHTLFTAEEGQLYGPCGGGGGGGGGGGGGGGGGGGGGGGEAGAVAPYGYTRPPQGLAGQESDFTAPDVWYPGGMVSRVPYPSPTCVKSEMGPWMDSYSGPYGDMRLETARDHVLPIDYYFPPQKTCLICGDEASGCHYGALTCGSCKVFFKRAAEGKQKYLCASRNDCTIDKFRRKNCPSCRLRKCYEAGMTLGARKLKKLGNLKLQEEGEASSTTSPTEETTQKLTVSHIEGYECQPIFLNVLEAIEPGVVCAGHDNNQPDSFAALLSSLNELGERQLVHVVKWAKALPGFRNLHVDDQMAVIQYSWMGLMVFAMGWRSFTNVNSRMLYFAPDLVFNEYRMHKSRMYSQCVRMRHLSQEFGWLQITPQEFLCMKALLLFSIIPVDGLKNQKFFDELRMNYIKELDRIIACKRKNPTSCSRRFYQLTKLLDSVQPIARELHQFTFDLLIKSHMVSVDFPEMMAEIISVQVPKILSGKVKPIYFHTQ
Assay: Androgen Receptor ELISA assay (PathScan AR ELISA) in VCaP cells: AR degradation, Dmax and DC50
Type: cell-based
Conditions: Table 36; for DC50: read-out: VCaP DC50; for Dmax: VCaP
Procedure, shortened: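 After 24 h exposure of VCaP cells (charcoal-stripped serum, 0.1 nM R1881 agonist, 0.1% DMSO) to seven half-log compound concentrations, residual AR in lysates was measured by PathScan ELISA (TMB absorbance, 450 nm). Cells were plated at 30,000/well and grown at least 3 days beforehand.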

[1] = VCaP cells, read-out: VCaP Dmax (%)
[2] = read-out: VCaP Dmax (%), VCaP cells

| SMILES | DC50 (VCaP cells) | Dmax [1] | Dmax [2] |
| --- | --- | --- | --- |
| CC(C)[C@@H](C(=O)N1C[C@H](O)C[C@H]1C(=O)NCc1ccc(Cl)cc1N1CCN(CCCc2ccc(C(=O)N[C@H]3C(C)(C)[C@H](Oc4ccc(C#N)c(Cl)c4)C3(C)C)cc2)CC1)N1Cc2ccccc2C1=O [Example 754, (2S,4R)-N-(4-chloro-2-(4-(3-(4-(((1r,3r)-3-(3-chloro-4-cyanophenoxy)-2,2,4,4-tetramethylcyclobutyl)carbamoyl)phenyl)propyl)piperazin-1-yl)benzyl)-4-hydroxy-1-((S)-3-methyl-2-(1-oxoisoindolin-2-yl)butanoyl)pyrrolidine-2-carboxamide] | > 501 nM | < 25% | – |
| Cc1ncsc1-c1ccc([C@H](C)NC(=O)[C@@H]2C[C@@H](O)CN2C(=O)[C@@H](NC(=O)CCCCc2ccc(C(=O)N[C@H]3C(C)(C)[C@H](Oc4ccc(C#N)c(Cl)c4)C3(C)C)cc2)C(C)(C)C)cc1 [Example 755, (2S,4R)-1-((S)-2-(5-(4-(((1r,3S)-3-(3-chloro-4-cyanophenoxy)-2,2,4,4-tetramethylcyclobutyl)carbamoyl)phenyl)pentan-amido)-3,3-dimethylbutanoyl)-4-hydroxy-N-((S)-1-(4-(4-methylthiazol-5-yl)phenyl)ethyl)pyrrolidine-2-carboxamide] | > 501 nM | 26 to 50% | – |
| Cc1ncsc1-c1ccc([C@H](C)NC(=O)[C@@H]2C[C@@H](O)CN2C(=O)[C@@H](NC(=O)CCCCCCCCc2ccc(C(=O)N[C@H]3C(C)(C)[C@H](Oc4ccc(C#N)c(Cl)c4)C3(C)C)cc2)C(C)(C)C)cc1 [Example 756, (2S,4R)-1-((S)-2-(9-(4-(((1r,3r)-3-(3-chloro-4-cyanophenoxy)-2,2,4,4-tetramethylcyclobutyl)carbamoyl)phenyl)nonan-amido)-3,3-dimethylbutanoyl)-4-hydroxy-N-((S)-1-(4-(4-methylthiazol-5-yl)phenyl)ethyl)pyrrolidine-2-carboxamide] | 51 to 500 nM | 51 to 70% | – |
| CC(C)(C)[C@H](NC(=O)COCCN1CCN(c2ccc(C(=O)N[C@H]3C(C)(C)[C@H](Oc4ccc(C#N)c(Cl)c4)C3(C)C)cn2)CC1)C(=O)N1C[C@H](O)C[C@H]1C(=O)NCc1ccc(C2CC2)cc1 [Example 757, N-((1r,3r)-3-(3-chloro-4-cyanophenoxy)-2,2,4,4-tetramethylcyclobutyl)-6-(4-(2-(2-(((S)-1-((2S,4R)-2-((4-cyclopropylbenzyl)car-bamoyl)-4-hydroxypyrrolidin-1-yl)-3,3-dimethyl-1-oxobutan-2-yl)amino)-2-oxoethoxy)ethyl)pipera-zin-1-yl)nicotinamide] | > 501 nM | 26 to 50% | – |
| CC(C)(C)[C@H](NC(=O)COCCN1CCN(c2ccc(C(=O)N[C@H]3C(C)(C)[C@H](Oc4ccc(C#N)c(Cl)c4)C3(C)C)cn2)CC1)C(=O)N1C[C@H](O)C[C@H]1C(=O)NCc1ccc(C2CCC2)cc1 [Example 758, N-((1r,3r)-3-(3-chloro-4-cyanophenoxy)-2,2,4,4-tetramethylcyclobutyl)-6-(4-(2-(2-(((S)-1-((2S,4R)-2-((4-cyclobutylbenzyl)carbam-oyl)-4-hydroxypyrrolidin-1-yl)-3,3-dimethyl-1-oxobutan-2-yl)amino)-2-oxoethoxy)ethyl)pipera-zin-1-yl)nicotinamide] | > 501 nM | < 25% | – |
| CC(C)(C)[C@H](NC(=O)COCCN1CCN(c2ccc(C(=O)N[C@H]3C(C)(C)[C@H](Oc4ccc(C#N)c(Cl)c4)C3(C)C)cn2)CC1)C(=O)N1C[C@H](O)C[C@H]1C(=O)NCc1ccc(C2CCCC2)cc1 [Example 759, N-((1r,3r)-3-(3-chloro-4-cyanophenoxy)-2,2,4,4-tetramethylcyclobutyl)-6-(4-(2-(2-(((S)-1-((2S,4R)-2-((4-cyclopentylbenzyl)car-bamoyl)-4-hydroxypyrrolidin-1-yl)-3,3-dimethyl-1-oxobutan-2-yl)amino)-2-oxoethoxy)ethyl)pipera-zin-1-yl)nicotinamide] | > 501 nM | < 25% | – |
| CC(C)(C)[C@H](NC(=O)COCCN1CCN(c2ccc(C(=O)N[C@H]3C(C)(C)[C@H](Oc4ccc(C#N)c(Cl)c4)C3(C)C)cn2)CC1)C(=O)N1C[C@H](O)C[C@H]1C(=O)NCc1ccc(C2CCOCC2)cc1 [Example 760, N-((1r,3r)-3-(3-chloro-4-cyanophenxoy)-2,2,4,4-tetramethylcyclobutyl) 6-(4-(2-(2-(((S)-1-((2S,4R)-4-hydroxy-2-((4-(tetrahydro-2H-pyran-4-yl)benzyl)carbamoyl)pyrrolidin-1-yl)-3,3-dimethyl-1-oxobutan-2-yl)amino)-2-oxoethoxy)ethyl)pipera-zin-1-yl)nicotinamide] | > 501 nM | 26 to 50% | – |

Other lines, results leading:

| DC50 (VCaP cells) | Dmax [1] | Dmax [2] | SMILES |
| --- | --- | --- | --- |
| > 501 nM | – | < 25% | Cc1ncsc1-c1ccc(CNC(=O)[C@@H]2C[C@@H](O)CN2C(=O)[C@@H](C(C)C)N2Cc3ccc(N4CCN(CCCc5ccc(C(=O)N[C@H]6C(C)(C)[C@H](Oc7ccc(C#N)c(C(F)(F)F)c7)C6(C)C)cc5)CC4)cc3C2=O)cc1 [Example 761, (2S,4R)-1-((R)-2-(6-(4-(3-(4-(((1r,3r)-3-(4-cyano-3-(trifluoromethyl)phenxoy)-2,2,4,4-tetramethylcyclobutyl)carbamoyl)phenyl)propyl)piperazin-1-yl)-1-oxoisoindolin-2-yl)-3-methylbutanoyl)-4-hydroxy-N-(4-(4-methylthiazol-5-yl)benzyl)pyrrolidine-2-carboxamide] |
| > 501 nM | – | < 25% | Cc1ncsc1-c1ccc(CNC(=O)[C@@H]2C[C@@H](O)CN2C(=O)[C@H](C(C)C)N2Cc3ccc(N4CCN(CCCc5ccc(C(=O)N[C@H]6C(C)(C)[C@H](Oc7ccc(C#N)c(C(F)(F)F)c7)C6(C)C)cc5)CC4)cc3C2=O)cc1 [Example 762, (2S,4R)-1-((S)-2-(6-(4-(3-(4-(((1r,3r)-3-(4-cyano-3-(trifluoromethyl)phenoxy)-2,2,4,4-tetramethylcyclobutyl)carbamoyl)phenyl)propyl)piperazin-1-yl)-1-oxoisoindolin-2-yl)-3-methylbutanoyl)-4-hydroxy-N-(4-(4-methylthiazol-5-yl)benzyl)pyrrolidine-2-carboxamide] |
| < 50 nM | > 71% | – | Cc1ncsc1-c1ccc([C@H](C)NC(=O)[C@@H]2C[C@@H](O)CN2C(=O)[C@@H](NC(=O)CCCCCCCc2ccc(C(=O)N[C@H]3C(C)(C)[C@H](Oc4ccc(C#N)c(Cl)c4)C3(C)C)cc2)C(C)(C)C)cc1 [Example 763, (2S,4R)-1-((S)-2-(8-(4-(((1r,3r)-3-(3-chloro-4-cyanophenoxy)-2,2,4,4-tetramethylcyclobutyl)carbamoyl)phenyl)octan-amido)-3,3-dimethylbutanoyl)-4-hydroxy-N-((S)-1-(4-(4-methylthiazol-5-yl)phenyl)ethyl)pyrrolidine-2-carboxamide] |
| 51 to 500 nM | 51 to 70% | – | Cc1ncsc1-c1ccc([C@H](C)NC(=O)[C@@H]2C[C@@H](O)CN2C(=O)[C@@H](NC(=O)CCCCCCCCCc2ccc(C(=O)N[C@H]3C(C)(C)[C@H](Oc4ccc(C#N)c(Cl)c4)C3(C)C)cc2)C(C)(C)C)cc1 [Example 764, (2S,4R)-1-((S)-2-(10-(4-(((1r,3r)-3-(3-chloro-4-cyanophenoxy)-2,2,4,4-tetramethylcyclobutyl)carbamoyl)phenyl)decan-amido)-3,3-dimethylbutanoyl)-4-hydroxy-N-((S)-1-(4-(4-methylthiazol-5-yl)phenyl)ethyl)pyrrolidine-2-carboxamide] |
| > 501 nM | < 25% | – | Cc1ncsc1-c1ccc([C@H](C)NC(=O)[C@@H]2C[C@@H](O)CN2C(=O)[C@@H](NC(=O)COCCN2CCN(c3ccc(C(=O)N[C@H]4C[C@H](Oc5ccc(C#N)c(Cl)c5)C4)cn3)CC2)C(C)(C)C)cc1 [Example 765, N-((1r,3r)-3-(3-chloro-4-cyanophenoxy)cyclobutyl)-6-(4-(2-(2-(((S)-1-((2S,4R)-4-hydroxy-2-(((S)-1-(4-(4-methylthiazol-5-yl)phenyl)ethyl)carbam-oyl)pyrrolidin-1-yl)-3,3-dimethyl-1-oxobutan-2-yl)amino)-2-oxoethoxy)ethyl)pipera-zin-1-yl)nicotinamide] |
| > 501 nM | 26 to 50% | – | Cc1ncsc1-c1ccc([C@H](C)NC(=O)[C@@H]2C[C@@H](O)CN2C(=O)[C@@H](NC(=O)CN2CCN(CCCOCc3cc(C(=O)N[C@@H](C)Cn4ccc(-c5ccc(C#N)c(C(F)(F)F)c5)n4)n[nH]3)CC2)C(C)(C)C)cc1 [Example 766] |

— patent US11427548B2 (Arvinas Operations, Inc., priority 2015, dated 2022)
